{"source": "patent EP3300733A1", "about": "“SUBSTANCE SELECTED AMONG IRINOTECAN, AN IRINOTECAN ACTIVE METABOLITE, 5-FLUORO-URACILE, A PHARMACEUTICAL SALT THEREOF AND A MIXTURE THEREOF, FOR USE IN THE TREATMENT OF FIBROSIS” (Centre Hospitalier Universitaire de Bordeaux, priority 2016, dated 2018)", "key": {"[1]": {"system": "COL1A2 mRNA", "assay": "mRNA expression of fibrosis genes in dermal fibroblasts (qPCR): COL1A2", "type": "cell-based", "settings": "Homo sapiens, Fibroblast, read-out: average inhibition of COL1A2 mRNA levels", "protocol": "(§1) Dermal fibroblasts were obtained from clinically affected skin of systemic sclerosis (SSC) patients and from healthy donors (H). The fibroblasts were grown in DMEM medium containing 2mM of L-glutamine supplemented with 10% foetal bovine serum (FCS) and penicillin/streptomycin antibiotics.\n(§2) Dermal fibroblasts were plated in DMEM 10% FCS in 24-well plates. 24h before the experiment, medium was switched to DMEM 0% FCS. […] Supernatants were removed and plates were freezed at -80°c. Fibroblasts RNA from each well-plate were extracted with NucleoSpin® RNA Plus kit (Macherey-Nagel) according to manufacter's instructions. Triplicates were done and RNA from triplicates were pooled together. The quantity and quality of RNA were evaluated by capillary electrophoresis (Bioanalyzer 2100, Agilent).\n(§3) RNA was used for cDNA synthesis using the Transcriptor Reverse Transcriptase kit (Roche). qPCR reactions were run on a Light Cycler (Roche Molecular Systems Inc.) according to manufacter's instructions. The relative gene expression levels of COL1A1, COL1A2, MMP1, TIMP1, CCL2 and ACTA2 were calculated using the ΔΔCt method. Target mRNA levels were normalized to GAPDH.\n(§4) Expression of the genes in the different treated conditions was presented as fold change compared with the gene expression of the same non-treated fibroblasts arbitrary fixed at 100%."}, "[2]": {"system": "COL1A1 mRNA", "assay": "mRNA expression of fibrosis genes in dermal fibroblasts (qPCR): COL1A1", "type": "cell-based", "settings": "Homo sapiens, Fibroblast, read-out: average inhibition of COL1A1 mRNA levels", "protocol": "as §1, §2, §3, §4"}, "[3]": {"system": "dermal fibroblasts", "assay": "cytotoxicity on the fibroblasts (data not shown)", "type": "cell-based, human"}, "[4]": {"system": "procollagen I", "assay": "release of procollagen I protein by dermal fibroblasts (ELISA), dose response", "type": "cell-based, human", "settings": "48h, both cell types (SSC and healthy fibroblasts), vs non-treated", "protocol": "as §1\nDermal fibroblasts were plated in DMEM 10% FCS supplemented with 20µg/mL of vitamin C in 96-well plates. 24h before the experiment, medium was switched to DMEM 0% FCS supplemented with 20µg/mL of vitamin C. […] Supernatants were collected to evaluate the procollagen I release level by ELISA kit (ref MK101, supplier Takara) according to manufacter's instructions. Triplicates were done. The level of procollagen I release was presented as fold change compared with the procollagen I release by the same non-treated fibroblasts arbitrary fixed at 100%."}, "[5]": {"system": "MMP1 mRNA", "assay": "mRNA expression of fibrosis genes in dermal fibroblasts (qPCR): MMP1", "type": "cell-based", "settings": "Homo sapiens, Fibroblast, read-out: average inhibition of MMP1 mRNA levels", "protocol": "as §1, §2, §3, §4"}, "[6]": {"system": "CCL2 mRNA", "assay": "mRNA expression of fibrosis genes in dermal fibroblasts (qPCR): CCL2", "type": "cell-based", "settings": "Homo sapiens, Fibroblast, 24h, SSc and healthy fibroblasts, vs non-treated, read-out: average inhibition of CCL2 mRNA levels", "protocol": "as §1, §2, §3, §4"}, "[7]": {"system": "TIMP1 mRNA", "assay": "mRNA expression of fibrosis genes in dermal fibroblasts (qPCR): TIMP1", "type": "cell-based", "settings": "Homo sapiens, Fibroblast, read-out: average inhibition of TIMP1 mRNA levels", "protocol": "as §1, §2, §3, §4"}, "[8]": {"system": "procollagen I", "assay": "effect of a combination of low SN38 and 5FU doses on procollagen I release (ELISA)", "type": "cell-based, human", "settings": "5FU 1 µg/ml alone (condition B), 48h; patient SSC2, SSC3 or H2", "quoted_text": "Dermal fibroblasts were plated in DMEM 10% FCS supplemented with 20µg/mL of vitamin C in 96-well plates. 24h before the experiment, medium was switched to DMEM 0% FCS supplemented with 20µg/mL of vitamin C. Cells were treated for 48h with SN38 (0.006 µg/mL), 5FU (1 µg/mL) or a combination (SN38 0.006 µg/mL and 5FU 1 µg/mL) in DMEM 0% FCS supplemented with 20µg/mL of vitamin C. Supernatants were collected to evaluate the procollagen I release level by ELISA kit (ref MK101, supplier Takara) according to manufacter's instructions. Triplicates were done. The level of procollagen I release was presented as fold change compared with the procollagen I release by the same non-treated fibroblasts arbitrary fixed at 100%."}, "[9]": {"system": "idiopathic pulmonary fibrosis", "settings": "on one year, 72 week phase III trial; cited from earlier work"}, "[10]": {"system": "ACTA2 mRNA", "assay": "mRNA expression of fibrosis genes in dermal fibroblasts (qPCR): ACTA2", "type": "cell-based", "settings": "Homo sapiens, Fibroblast, read-out: average inhibition of ACTA2 mRNA levels", "protocol": "as §1, §2, §3, §4"}, "[11]": {"system": "diffuse cutaneous systemic sclerosis", "settings": "cited from earlier work"}, "[12]": {"system": "diffuse scleroderma", "assay": "clinical case: patient with diffuse scleroderma treated with chemotherapy", "type": "in vivo, human", "settings": "methotrexate 7.5 mg to 10 mg per week for 5 years before admission", "from_the_text": "A person was referred for fever and abdominal pain. Their medical history was mainly represented by a systemic scleroderma diagnosed 20 years before and with digestive, cutaneous and rheumatologic involvement. […] Blood test found anti topo-I antibodies to high level (141 IU/mL, normal range 0-29). […] The modified Rodnan score was 24/51.\nThen, it was proposed to the patient 4 cycles of chemotherapy FOLFORINOX followed by rectal surgery.\nThe patient received 4 cycles of FOLFORINOX (oxaliplatine 85 mg/m^2, irinotecan 180 mg/m^2, 5-fluoro-uracil 400 mg/m^2 flash then 2400 mg/m^2 the following 46 hours). Cycles of chemotherapy were administered every 14 days on January 13 and 27, and February 11 and 25, 2014.\nThen, the patient had surgery and according to post-surgical piece, it was realized 6 cycles of FOLFOX (folinic acid, oxaliplatine and 5-fluorouracil) with no new improvement during these last 6 cycles."}, "[13]": {"settings": "5FU 384 µM (highest dose), 24h, SSc and healthy fibroblasts, vs non-treated"}, "[14]": {"settings": "all the doses used in the procollagen I release test (irinotecan 0.006-40 µg/ml, SN38 0.00006-0.6 µg/ml, 5FU 0.3-80 µg/ml)"}, "[15]": {"settings": "control group (cyclophosphamide), share of patients"}, "[16]": {"settings": "irinotecan 32 µM (highest dose), 24h, SSc and healthy fibroblasts, vs non-treated"}}, "note": "Where two headings read alike, the source gives them in different places.", "data": [{"smiles": "O=c1[nH]cc(F)c(=O)[nH]1", "note": "[5FU, 5-Fluoro-1H,3H-pyrimidine-2,4-dione]", "values": [{"measurement": "inhibition at 384 µM", "setting": "[1]; [13]", "result": 12, "unit": "%"}, {"measurement": "inhibition at 384 µM", "setting": "[2]; [13]", "result": 17, "unit": "%"}, {"measurement": "cytotoxic on the fibroblasts", "setting": "[3]; 38.4 µM and 384 µM", "result": "not cytotoxic"}, {"measurement": "cytotoxic on the fibroblasts", "setting": "[3]; [14]", "result": "not cytotoxic"}, {"measurement": "release of procollagen I protein", "setting": "[4]; 80µg/mL", "result": "significantly decreased"}, {"measurement": "inhibition at 384 µM", "setting": "[5]; [13]", "result": 37, "unit": "%"}, {"measurement": "inhibition at 384 µM", "setting": "[6]; 5FU 384 µM (highest dose)", "result": 31, "unit": "%"}, {"measurement": "inhibition at 384 µM", "setting": "[7]; [13]", "result": 15, "unit": "%"}, {"measurement": "procollagen I release", "setting": "[8]", "result": "not observed"}]}, {"smiles": "Cc1ccc(=O)n(-c2ccccc2)c1", "note": "[Pirfenidone]", "values": [{"measurement": "reduce decline in lung function (forced vital capacity, FCV)", "setting": "[9]", "result": 4.4, "unit": "%"}]}, {"smiles": "CCc1c2c(nc3ccc(O)cc13)-c1cc3c(c(=O)n1C2)COC(=O)[C@]3(O)CC", "note": "[SN38, 7-Ethyl-10-hydroxy-camptothecin]", "values": [{"measurement": "inhibition at 1 µM", "setting": "[1]; 24 h", "result": 52, "unit": "%"}, {"measurement": "inhibition at 1 µM", "setting": "[2]; 24 h", "result": 57.5, "unit": "%"}, {"measurement": "cytotoxic on the fibroblasts", "setting": "[3]; 0.1 µM and 1 µM", "result": "not cytotoxic"}, {"measurement": "cytotoxic on the fibroblasts", "setting": "[3]; [14]", "result": "not cytotoxic"}, {"measurement": "release of procollagen I protein", "setting": "[4]; 0.3 µg/mL", "result": "significantly decreased"}, {"measurement": "release of procollagen I protein", "setting": "[4]; 0.6 µg/mL", "result": "significantly decreased"}, {"measurement": "inhibition at 1 µM", "setting": "[5]; 24 h", "result": 42, "unit": "%"}, {"measurement": "inhibition at 1 µM", "setting": "[10]; 24 h", "result": 55, "unit": "%"}, {"measurement": "inhibition at 1 µM", "setting": "[7]; 24 h", "result": 22, "unit": "%"}]}, {"smiles": "O=P1(N(CCCl)CCCl)NCCCO1", "note": "(stereo not shown) [cyclophosphamide]", "values": [{"measurement": "events, cumulative", "setting": "[11]; control group (cyclophosphamide), at 2 years", "result": 18.2, "unit": "%"}, {"measurement": "events, cumulative", "setting": "[11]; control group (cyclophosphamide), at 4 years", "result": 26, "unit": "%"}, {"measurement": "events", "setting": "[11]; control group (cyclophosphamide), during the first year, no treatment-related deaths", "result": 10.4, "unit": "%"}, {"measurement": "Grade 3 or 4 adverse events", "setting": "[11]; [15]", "result": 37.0, "unit": "%"}, {"measurement": "Viral infections", "setting": "[11]; [15]", "result": 1.3, "unit": "%"}, {"measurement": "events (deaths and irreversible organ failures)", "setting": "[11]; control group (cyclophosphamide, n = 77), median follow-up of 5.8 years, 23 deaths and 8 irreversible organ failures", "result": 31}]}, {"smiles": "CCc1c2c(nc3ccc(OC(=O)N4CCC(N5CCCCC5)CC4)cc13)-c1cc3c(c(=O)n1C2)COC(=O)[C@]3(O)CC", "note": "[irinotecan, (S)-4,11-diethyl-3,4,12,14-tetrahydro-4-hydroxy-3,14-dioxo1H-pyrano[3',4':6,7]-indolizino[1,2-b]quinolin-9-yl-[1,4'bipiperidine]-1'-carboxylate]", "values": [{"measurement": "inhibition at 32 µM", "setting": "[1]; [16]", "result": 22, "unit": "%"}, {"measurement": "inhibition at 32 µM", "setting": "[2]; [16]", "result": 27, "unit": "%"}, {"measurement": "cytotoxic on the fibroblasts", "setting": "[3]; 3.2 µM and 32 µM", "result": "not cytotoxic"}, {"measurement": "cytotoxic on the fibroblasts", "setting": "[3]; [14]", "result": "not cytotoxic"}, {"measurement": "release of procollagen I protein", "setting": "[4]; 40µg/mL", "result": "significantly decreased"}, {"measurement": "inhibition at 32 µM", "setting": "[5]; [16]", "result": 32, "unit": "%"}, {"measurement": "inhibition at 32 µM", "setting": "[6]; irinotecan 32 µM (highest dose)", "result": 19, "unit": "%"}, {"measurement": "inhibition at 32 µM", "setting": "[10]; [16]", "result": 33, "unit": "%"}]}, {"smiles": "CN(Cc1cnc2nc(N)nc(N)c2n1)c1ccc(C(=O)N[C@@H](CCC(=O)O)C(=O)O)cc1", "note": "[methotrexate]", "values": [{"measurement": "impact on scleroderma evolution", "setting": "[12]", "result": "without substantial impact"}]}]}
